US20210260066A1, “METHOD OF USING MEK INHIBITOR TO PREVENT RADIATION INDUCED FIBROSIS” (THOMAS JEFFERSON UNIVERSITY, priority 2018, published 2021)

Assays:
C57BL/6 mice = details: mouse, in vivo
Source text: C57BL/6 mice were used to develop a consistent model of intra-abdominal adhesion formation. Mouse cecums were gently abraded to promote adhesion formation which were subsequently analyzed histologically and immunochemically to characterize the expression of pro-fibrotic genes including (αSMA and FNEDA isoform, both of which were examined immunohistochemically and by quantitative polymerase chain reaction (qPCR). Trichrome staining was used to assess collagen deposition, a major protein component found in the extracellular matrix (ECM) at adhesion sites. Consistent intra-abdominal adhesions in mice were achieved by gentle cecal abrasion with mortality rates of <10%. Adhesions were seen as early as post-operative day 1 with extensive adhesions being formed and vascularized by day 5. Expression of the FNEDA isoform first and subsequently αSMA and collagen occurred during adhesion maturation.
Equal numbers of male and female C57BL/6 mice (18-25 g, 8-10 weeks of age, Jackson Laboratories, Bar Harbor, Me.) were used in initial experiments while only male mice were used in the drug escalation studies because they sustained greater accumulations of fibrotic tissue (data not shown). […]

[1] = test system: rat peritoneal mesothelial cells; experiment: TGF-β induced mesothelial-mesenchymal transition (MMT) of rat peritoneal mesothelial cells; assay type: cell-based
Procedure: Isolated mesothelial cells were incubated under control conditions without either TGF-β or trametinib, with TGF-β or trametinib alone, or with both TGF-β and trametinib for five days.
These increases in gene expression of phosphor-Erk1/2, FNEDA, αSMA and p-SMAD2 (linker) were blocked by as low a concentration of trametinib as 2 nM.
The experiments in this study were approved by the Institutional Animal Care and Use Committee at Thomas Jefferson University, and were performed in accordance with the National Institutes of Health guidelines for the care and handling of laboratory animals. […]
RPMCs were lysed in ice-cold modified RIPA buffer with protease inhibitor cocktail (50 mM/L Tris-HCl, 1% NP-40, 0.25% Na-deoxycholate, 150 mM/L NaCl, 1 mM/L EDTA, 1 mmol/L phenylmethyl sulfonyl fluoride, 1 mM/L sodium orthovanadate, 1 mM/L NaF, pH 7.4). Equivalent amounts of homogenate (50 μg/well), determined by Coomassie blue assay, were separated by sodium dodecyl sulfate polyacrylamide gel electrophoresis (SDS-PAGE), transferred to either nitrocellulose or PVDF membranes, and detected by SuperSignal West Femto or Pico chemiluminescence.

mouse lung fibroblasts = experiment: Pro-fibrotic gene expression (qPCR) in bleomycin-treated mouse lung fibroblasts; assay type: cell-based; details: bleomycin alone vs vehicle control
Source text: Indeed, FIGS. 1A, 1B, and 1C depict the ability of trametinib to modulate the expression of pro-fibrotic genes in mouse lung fibroblasts. The three graphs represent expression of (type I collagen and FNEDA) and αSMA. Lung fibroblasts isolated form mouse lungs were placed in cell culture and treated either with saline (control) or bleomycin dissolved in saline and 3 different concentrations of trametinib (2.5, 5 and 10 nmolar) dissolved in DMSO. After treatment with the drug, RNA was extracted and quantified by qPCR. mRNAs for type I collagen (Collal), the FNEDA and αSMA are shown. Control values in FIGS. 1 A, B, and C were set to 100%.

Molecule	Wound healing of abdominal muscles and skin at the laparotomy site (C57BL/6 mice)	Concentration blocking the increases of phosphor-Erk1/2, FNEDA, αSMA and p-SMAD2 (linker) ([1]; TGF-β-treated cells) [nM]	Effect of trametinib alone on mesothelial cells (toxicity, appearance) ([1]; trametinib alone, five days)	Increase in expression of Collal mRNA (mouse lung fibroblasts)	Increase in expression of FNEDA mRNA (mouse lung fibroblasts) [%]	Increase in expression of αSMA mRNA (mouse lung fibroblasts)
CC(=O)Nc1cccc(-n2c(=O)n(C3CC3)c(=O)c3c(Nc4ccc(I)cc4F)n(C)c(=O)c(C)c32)c1 [trametinib]	no impairment	≤ 2	no effect and no apparent toxic effects	–	–	–
bleomycin	–	–	–	more than 200%	~150	more than 200%
